# Where two headings read alike, the source gives them in different places.
# What was measured:
# MCF7 cells = assay: Clonogenic assay using MCF7 cells; assay type: cell-based, human
# Method: The clonogenic assay was carried out as described in Santi and Lee (2011).^11
# Antiproliferative activity of VR-23 was evaluated on a variety of different cell lines, alone or in combination with Bortezomib, by way of SRBSRB or clonogenic assays.
# Jurkat lymphoma cells = assay: Flow cytometry, apoptosis of Jurkat lymphoma cells; assay type: cell-based; conditions: 6 nM Bortezomib, 48 hours
# Method: Asynchronously growing Jurkat lymphoma cells were incubated for 48 hours in the absence (sham control) or presence of Bortezomib alone or in combination with VR-23.
# MDA-MB231 = assay: SRB antiproliferative assay, MDA-MB231; assay type: cell-based, human
# Method: (§1) Antiproliferative effects were determined by a sulforhodamine B (SRB) based protocol. For a typical screening experiment, 5,000-10,000 cells were inoculated into 100 μl medium per well of a 96-well microtiter plate as described previously. […] Some of the sample wells were fixed with 25 μl of 50% trichloroacetic acid (TCA) as a control of the cell population for each cell line at the time of drug addition (Tz). An aliquot of the frozen stock was thawed and diluted to the desired final maximum test-concentration with complete medium. Two to ten-fold serial dilutions were made to provide a total of seven drug concentrations (and a control [C]). Following addition of drugs, the culture plate was incubated for additional 48 h. Cells were fixed in situ by slowly adding 25 μl of ice-cold 50% (w/v) TCA (final concentration, 10% TCA), and were then incubated for 60 min at 4° C. The supernatant was discarded, and the plate was washed five times with tap water, followed by air-dry. 50 μl of SRB solution at 0.4% (w/v) in 1% acetic acid was added to each well, and the plate was incubated for >30 min at room temperature. Unbound SRB was removed by five washes with tap water, followed by air-drying. […] The relative growth rate (%) was calculated for each of the compound concentrations according to the following formula: (Ti−Tz)/(C−Tz)×100 In the formula, time zero (Tz), control growth (C), and OD for different concentration of tested compounds (Ti). The GI50 for each compound was obtained from a non-linear Sigmoidal dose-response (variable slope) curve which is fitted by GraphPad Prism™ v.4.03 software. Values were calculated for each of these parameters if the level of activity was reached. However, if the effect was not reached or was exceeded, the value for that parameter was expressed as greater or less than the maximum or minimum concentration tested. Flow Cytometry
# MDA-MB468 = assay: SRB antiproliferative assay, MDA-MB468; assay type: cell-based, human
# Method: as §1
# MCF7 = assay: SRB antiproliferative assay, MCF7; assay type: cell-based, human
# Method: as §1
# 184B5 = assay: SRB antiproliferative assay, 184B5 non-cancer breast cells; assay type: cell-based, human; conditions: SRB, 48 h, read-out: GI50 184B5
# Method: as §1
# MCF10A = assay: SRB antiproliferative assay, MCF10A non-cancer breast cells; assay type: cell-based, human; conditions: 48 h
# Method: as §1
# MCF10A non-cancer cells = conditions: 50 μM CQ
# [1] = Serum ALT liver toxicity, CD-1 mice; conditions: Chloroquine (Reference)
# Method: Alanine Transaminase (“ALT”, SUP6001-c)/Aspartate Transaminase (“AST”, SUP6002-c) color endpoint assay kits were purchased from ID Labs Biotechnology (London, Ontario, Canada). Elevation of ALT and AST levels in serum samples is used as an indicator of liver damage/injury.
# Animals were monitored for food and water consumption every day, and their body weights and tumor volumes were measured twice per week. Tumor volumes were measured with a digital caliper and were determined by using the following formula: ½ length×width^2. Blood samples were collected via cardiac puncture and processed further for ALT and AST measurements. The animals were then immediately euthanized by carbon dioxide.
# Changes in body weight and the amount and ratio of alanine transaminase (ALT)/aspartate transaminase (AST) were used to measure toxic effects.
# Ratio of <2 is considered normal.
# [2] = Homo sapiens, MCF7, SRB, 48 h, read-out: GI50 MCF7
smiles,measurement,setting,value
CC(C)C[C@H](NC(=O)[C@H](Cc1ccccc1)NC(=O)c1cnccn1)B(O)O [Bortezomib],Average colony number,"MCF7 cells; Bortezomib at 2 nM, series with non-treated control 34",15
same,Average colony number,"MCF7 cells; Bortezomib at 4 nM, series with non-treated control 34",12
same,Average colony number,"MCF7 cells; Bortezomib at 4 nM, series with non-treated control 36",11
same,Average colony number,"MCF7 cells; Bortezomib at 6 nM, series with non-treated control 36",6
same,Cell killing by apoptosis,Jurkat lymphoma cells,"neither 6 nM of Bortezomib (FIG. 4, ii) nor 0.75 μM of VR-23 (FIG. 4, iv) induced substantial cell killing by apoptosis"
"CCN(CC)CCCC(C)Nc1ccnc2cc(Cl)ccc12 (stereo not drawn) [Chloroquine, reference compound]",GI50,"MDA-MB231; Homo sapiens, MDA-MB-231, 48 h",22.5 ± 1.44 µM
same,GI50,"MDA-MB468; Homo sapiens, MDA-MB-468, 48 h",28.6 ± 1.25 µM
same,GI50,"MCF7; Homo sapiens, MCF7, 48 h, read-out: GI50 MCF7",38.4 ± 1.2 µM
same,GI50,"MCF7; Homo sapiens, MCF7, read-out: GI50 value of CQ on MCF7",~38 µM
same,GI50,"184B5; Homo sapiens, 184B5",76.1 ± 1.13 µM
same,GI50,"MCF10A; Homo sapiens, MCF-10A",81.3 ± 1.45 µM
same,Apoptosis in MCF10A,MCF10A non-cancer cells,some cells underwent apoptosis
same,ALT,[1],6.03 ± 4.40 IU/L blood
"N.N.[Cl][Pt][Cl] [Cisplatin, reference compound]",GI50,MDA-MB231; 48 h,23.65 ± 0.23 µM
same,GI50,MDA-MB468; 48 h,31 ± 0.45 µM
same,GI50,"MCF7; SRB, 48 h, read-out: GI50 MCF7",25.8 ± 0.38 µM
same,GI50,184B5,25.5 ± 0.35 µM
same,GI50,MCF10A,51.5 ± 0.65 µM
"CN(C)c1cccc2c(S(=O)(=O)NCCCNc3ccnc4cc(C(F)(F)F)ccc34)cccc12 [Compound 28, 5-Dimethylamino-naphthalene-1-sulfonic acid [3-(7-trifluoromethyl-quinolin-4-ylamino)-propyl]-amide]",GI50,"MDA-MB231; Homo sapiens, MDA-MB-231, 48 h",14.2 ± 0.98 µM
same,GI50,"MDA-MB468; Homo sapiens, MDA-MB-468, 48 h",9.71 ± 0.33 µM
same,GI50,MCF7; [2],7.73 ± 0.61 µM
same,GI50,"184B5; Homo sapiens, 184B5",3.73 ± 0.21 µM
same,melting point,,199 to 201 °C
"O=S(=O)(NCCCNc1ccnc2cc(C(F)(F)F)ccc12)c1ccc(-c2ccccc2)cc1 [Compound 29, Biphenyl-4-sulfonic acid [3-(7-trifluoromethyl-quinolin-4-ylamino)-propyl]-amide]",GI50,"MDA-MB231; Homo sapiens, MDA-MB-231, 48 h",6.03 ± 0.38 µM
same,GI50,"MDA-MB468; Homo sapiens, MDA-MB-468, 48 h",4.19 ± 0.23 µM
same,GI50,MCF7; [2],3.6 ± 0.27 µM
same,GI50,"184B5; Homo sapiens, 184B5",2.82 ± 0.05 µM
same,melting point,,110 to 112 °C
"O=S(=O)(NCCCNc1ccnc2cc(C(F)(F)F)ccc12)c1ccc(Cl)cc1Cl [Compound 30, 2,4-Dichloro-N-[3-(7-trifluoromethyl-quinolin-4-ylamino)-propyl]-benzenesulfonamide]",GI50,"MDA-MB231; Homo sapiens, MDA-MB-231, 48 h",6.97 ± 0.54 µM
same,GI50,"MDA-MB468; Homo sapiens, MDA-MB-468, 48 h",3.94 ± 0.12 µM
same,GI50,MCF7; [2],5.18 ± 0.29 µM
same,GI50,"184B5; Homo sapiens, 184B5",3.22 ± 0.08 µM
same,melting point,,117 to 119 °C

# — patent US9975852B2, “Quinoline sulfonyl derivatives and uses thereof” (Health Sciences North Research Institute, priority 2013, dated 2018)
